Reference: the supplement of paper PMC8617591

Legend:
[1] = system: Mycobacterium tuberculosis Erdman (autoluminescent); test: total FIC50 (Loewe) at 50% inhibition, three-drug combination (log2); higher = more antagonistic
Description: (§1)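 DiaMOND equipotent three-drug combination dose responses (10 doses, 1.5- or 2-fold spacing, centred on IC90) against autoluminescent M. tuberculosis Erdman in 8 in vitro models. Read-out is OD600, or luminescence for the intracellular and dormancy models, normalised to untreated wells. Hill-fit Einf, AUC25 and GRinf are potency metrics; FIC50 and FIC90 are total Loewe fractional inhibitory concentrations as log2 (negative = synergy).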

[2] = system: Mycobacterium tuberculosis Erdman (autoluminescent); test: total FIC90 (Loewe) at 90% inhibition, three-drug combination (log2); higher = more antagonistic
Description: as §1

[3] = system: Mycobacterium tuberculosis Erdman (autoluminescent); test: Einf, fitted maximum growth inhibition of three-drug combination (fraction); higher = stronger maximal inhibition
Description: as §1

[4] = system: Mycobacterium tuberculosis Erdman (autoluminescent); test: AUC25, normalised area under dose response up to IC25 (three-drug combination) (fraction (0-1)); higher = more potent at low dose
Description: as §1

[5] = system: Mycobacterium tuberculosis Erdman (autoluminescent); test: GRinf, maximum normalised growth rate inhibition (three-drug combination) (unitless (-1 to 1)); higher = less effect (negative = killing)
Description: as §1

CC(C)/N=c1\cc2n(-c3ccc(Cl)cc3)c3ccccc3nc-2cc1Nc1ccc(Cl)cc1 [clofazimine] + NC(=O)c1cnccn1 [pyrazinamide] + CO[C@H]1/C=C/O[C@@]2(C)Oc3c(C)c(O)c4c(O)c(c(/C=N/N5CCN(C)CC5)c(O)c4c3C2=O)NC(=O)/C(C)=C\C=C\[C@H](C)[C@H](O)[C@@H](C)[C@@H](O)[C@@H](C)[C@H](OC(C)=O)[C@@H]1C [rifampicin]
Details	AUC25, [4]	Einf, [3]	GRinf, [5]	total FIC50, [1]	total FIC90, [2]
in vitro model: acidic pH 5.7, time point: constant (~7 days, model-specific)	0.0832	0.905	-0.142	-0.249	–
in vitro model: acidic pH 5.7, time point: terminal (~4-5 doublings, model-specific)	0.0739	0.988	-0.217	-0.174	-0.451
in vitro model: intracellular J774, time point: constant = terminal	–	0.995	-0.387	–	-0.136

Details	AUC25, [4]	Einf, [3]	GRinf, [5]	total FIC50, [1]	total FIC90, [2]
in vitro model: butyrate, time point: constant (~7 days, model-specific)	0.115	0.918	-0.091	0.234	0.505
in vitro model: butyrate, time point: terminal (~4-5 doublings, model-specific)	0.0935	0.967	-0.0615	0.0552	0.0714
in vitro model: cholesterol 0.05 mM, time point: constant (~7 days, model-specific)	0.122	0.657	-0.00769	–	–
in vitro model: cholesterol 0.05 mM, time point: terminal (~4-5 doublings, model-specific)	0.106	0.894	-0.15	1.2	–
in vitro model: cholesterol-high 0.2 mM, time point: constant (~7 days, model-specific)	0.113	0.864	-0.605	1.06	–
in vitro model: cholesterol-high 0.2 mM, time point: terminal (~4-5 doublings, model-specific)	0.107	1	-0.764	1.43	1.53
in vitro model: dormancy (butyrate + nitrate, low O2), time point: constant (~7 days, model-specific)	0.0887	0.949	0.12	-0.433	-1.62
in vitro model: dormancy (butyrate + nitrate, low O2), time point: terminal (~4-5 doublings, model-specific)	0.0801	0.994	-0.455	-0.413	0.318
in vitro model: standard 7H9 glycerol, time point: constant = terminal	0.114	0.935	0.0256	-0.361	–
in vitro model: valerate, time point: constant (~7 days, model-specific)	0.106	0.813	0.205	0.653	–
in vitro model: valerate, time point: terminal (~4-5 doublings, model-specific)	0.0497	0.896	0.165	0.53	1.88

CC(C)/N=c1\cc2n(-c3ccc(Cl)cc3)c3ccccc3nc-2cc1Nc1ccc(Cl)cc1 [clofazimine] + NNC(=O)c1ccncc1 [isoniazid] + CC(=O)NC[C@H]1CN(c2ccc(N3CCOCC3)c(F)c2)C(=O)O1 [linezolid]
Details	AUC25, [4]	Einf, [3]	GRinf, [5]	total FIC50, [1]	total FIC90, [2]
in vitro model: acidic pH 5.7, time point: constant (~7 days, model-specific)	0.0908	0.806	-0.134	0.331	–
in vitro model: acidic pH 5.7, time point: terminal (~4-5 doublings, model-specific)	0.0672	0.939	-0.192	0.773	-0.102
in vitro model: intracellular J774, time point: constant = terminal	–	0.833	0.168	–	0.492

Details	AUC25, [4]	Einf, [3]	GRinf, [5]	total FIC50, [1]	total FIC90, [2]
in vitro model: butyrate, time point: constant (~7 days, model-specific)	0.113	0.954	-0.181	0.73	1.87
in vitro model: butyrate, time point: terminal (~4-5 doublings, model-specific)	0.0763	0.977	-0.106	0.921	1.01
in vitro model: cholesterol 0.05 mM, time point: constant (~7 days, model-specific)	0.133	0.689	-0.0122	-0.374	–
in vitro model: cholesterol 0.05 mM, time point: terminal (~4-5 doublings, model-specific)	0.141	0.902	-0.198	4.56	0.951
in vitro model: cholesterol-high 0.2 mM, time point: constant (~7 days, model-specific)	0.124	0.934	-0.48	0.36	1.56
in vitro model: cholesterol-high 0.2 mM, time point: terminal (~4-5 doublings, model-specific)	0.109	1	-0.827	0.186	0.424
in vitro model: dormancy (butyrate + nitrate, low O2), time point: constant (~7 days, model-specific)	0.0763	0.914	0.0823	1.56	1.18
in vitro model: dormancy (butyrate + nitrate, low O2), time point: terminal (~4-5 doublings, model-specific)	0.0355	0.972	-0.074	1.16	0.734
in vitro model: standard 7H9 glycerol, time point: constant = terminal	0.126	0.959	-0.237	0.207	0.757
in vitro model: valerate, time point: constant (~7 days, model-specific)	0.128	0.885	-0.0388	0.318	–
in vitro model: valerate, time point: terminal (~4-5 doublings, model-specific)	0.0875	0.934	0.0843	0.0839	1.21

CC(C)/N=c1\cc2n(-c3ccc(Cl)cc3)c3ccccc3nc-2cc1Nc1ccc(Cl)cc1 [clofazimine] + NNC(=O)c1ccncc1 [isoniazid] + CO[C@H]1/C=C/O[C@@]2(C)Oc3c(C)c(O)c4c(O)c(c(/C=N/N5CCN(C6CCCC6)CC5)c(O)c4c3C2=O)NC(=O)/C(C)=C\C=C\[C@H](C)[C@H](O)[C@@H](C)[C@@H](O)[C@@H](C)[C@H](OC(C)=O)[C@@H]1C [rifapentine]
Details	AUC25, [4]	Einf, [3]	GRinf, [5]	total FIC50, [1]	total FIC90, [2]
in vitro model: acidic pH 5.7, time point: constant (~7 days, model-specific)	0.0883	0.85	-0.0449	0.415	–
in vitro model: acidic pH 5.7, time point: terminal (~4-5 doublings, model-specific)	0.09	0.989	-0.185	0.259	0.468
in vitro model: intracellular J774, time point: constant = terminal	–	0.954	-0.131	–	0.169

Details	AUC25, [4]	Einf, [3]	GRinf, [5]	total FIC50, [1]	total FIC90, [2]
in vitro model: butyrate, time point: constant (~7 days, model-specific)	0.0986	0.951	-0.088	0.508	0.999
in vitro model: butyrate, time point: terminal (~4-5 doublings, model-specific)	0.0792	0.98	-0.0855	0.521	0.588
in vitro model: cholesterol 0.05 mM, time point: constant (~7 days, model-specific)	0.118	0.666	0.0951	0.541	–
in vitro model: cholesterol 0.05 mM, time point: terminal (~4-5 doublings, model-specific)	0.0787	0.8	-0.0213	1.11	1.88
in vitro model: cholesterol-high 0.2 mM, time point: constant (~7 days, model-specific)	0.0889	0.959	-0.471	0.542	–
in vitro model: cholesterol-high 0.2 mM, time point: terminal (~4-5 doublings, model-specific)	0.0744	0.999	-0.743	0.993	0.67
in vitro model: dormancy (butyrate + nitrate, low O2), time point: constant (~7 days, model-specific)	0.0787	0.9	0.166	0.0637	-0.201
in vitro model: dormancy (butyrate + nitrate, low O2), time point: terminal (~4-5 doublings, model-specific)	0.0623	0.989	-0.337	0.174	0.32
in vitro model: standard 7H9 glycerol, time point: constant = terminal	0.111	0.942	-0.0519	0.0163	1.07
in vitro model: valerate, time point: constant (~7 days, model-specific)	0.118	0.858	0.0326	0.882	–
in vitro model: valerate, time point: terminal (~4-5 doublings, model-specific)	0.0644	0.907	0.0296	0.418	-0.138
